Assay results: US20100286079A1, “COMPOSITION COMPRISING COVALENT CONJUGATES OF CHITOSAN AND AN ACIDIC DRUG AND PARENTERAL ADMINISTRATION” (priority 2007, published 2010)

Columns and labels:
[1] = Solubility in water / aqueous solution; conditions: as observed during preparation
[2] = single 200-mg oral dose, fasting subjects; cited from earlier work

SMILES | solubility in aqueous medium [1] | time of peak plasma levels after administration [2]
CC(=O)O.CC(C)Cc1ccc(C(C)C(=O)O)cc1 (centres unmarked) [Ibuprofen ethanoate] | insoluble | –
CC(C)Cc1ccc(C(C)C(=O)O)cc1 (centres unmarked) [Ibuprofen] | – | about 1 hr
